Data from ChEMBL document CHEMBL4706632, “Development of Potential Antitumor Agents from the Scaffolds of Plant-Derived Terpenoid Lactones” (J Med Chem, 2020).
pIC50: −log10 of the molar value. Blank lines part the entries; values can stand above or below the molecule they belong to.

Key:
HepG2 [1] = test: Cytotoxicity against human HepG2 cells incubated for 48 hrs by alamarblue reagent based assay; type: functional, cell-based; conditions: HepG2, 48 h
MCF7 [2] = test: Cytotoxicity against human MCF7 cells incubated for 48 hrs by alamarblue reagent based assay; type: functional, cell-based; conditions: MCF7, 48 h
MDA-MB-231 [3] = test: Cytotoxicity against human MDA-MB-231 cells incubated for 48 hrs by MTT assay; type: functional, cell-based; conditions: MDA-MB-231, 48 h
AGS = test: Cytotoxicity against human AGS cells incubated for 48 hrs by MTT assay; type: functional, cell-based
HeLa = test: Cytotoxicity against human HeLa cells incubated for 48 hrs by MTT assay; type: functional, cell-based
HepG2 [4] = test: Cytotoxicity against human HepG2 cells incubated for 48 hrs by MTT assay; type: functional, cell-based; conditions: HepG2, 48 h
PANC-1 [5] = test: Cytotoxicity against human Panc-1 cells incubated for 48 hrs by MTT assay; type: functional, cell-based; conditions: PANC-1, 48 h
A549 = test: Antiproliferative activity against human A549 cells incubated for 72 hrs by Sulforhodamine B assay; type: functional, cell-based; conditions: A549, 72 h
A-431 = test: Antiproliferative activity against human A-431 cells incubated for 72 hrs by Sulforhodamine B assay; type: functional, cell-based; conditions: A-431, 72 h
[6] = Antiproliferative activity against human U87-MG cells incubated for 72 hrs by Sulforhodamine B assay; type: functional, cell-based; conditions: U-87 MG
HCT-116 [7] = test: Cytotoxicity against human HCT116 cells incubated for 72 hrs by ATPlite assay; type: functional, cell-based; conditions: HCT-116, 72 h
WM 266-4 = test: Cytotoxicity against human WM 266-4 cells incubated for 72 hrs by ATPlite assay; type: functional, cell-based; conditions: WM 266-4, 72 h
[8] = Inhibition of PAFR in New Zealand rabbit platelets assessed as reduction in PAF-induced platelet aggregation measured within 5 mins by aggregometry analysis; type: tissue-based; conditions: Oryctolagus cuniculus
PANC-1 [9] = test: Cytotoxicity against human Panc-1 cells incubated for 72 hrs by sulphorhodamine B assay; type: functional, cell-based; conditions: PANC-1, 72 h
SW1990 = test: Antiproliferative activity against human SW1990 incubated for 72 hrs by sulphorhodamine B assay; type: functional, cell-based; conditions: SW1990, 72 h
MCF7 [10] = test: Cytotoxicity against human MCF-7 cells incubated for 72 hrs by MTT assay; type: functional, cell-based; conditions: MCF7, 72 h
MDA-MB-231 [11] = test: Cytotoxicity against human MDA-MB-231 cells incubated for 72 hrs by MTT assay; type: functional, cell-based; conditions: MDA-MB-231, 72 h
[12] = Antiproliferative activity against human Panc-28 cells incubated for 72 hrs by MTT assay; type: functional, cell-based; conditions: MDA-Panc-28, 72 h
[13] = Inhibition of [3H]PAF-acether binding to PAFR in rabbit platelet plasma membranes incubated for 1 hr; type: cell membranes, Oryctolagus cuniculus, Cell membrane
P388 = test: Cytotoxicity against mouse P388 cells incubated for 48 hrs by MTT assay; type: functional, cell-based; conditions: P388, 48 h
MCF7 [14] = test: Antiproliferative activity against human MCF7 cells incubated for 48 hrs by [3H]-thymidine incorporation assay; type: functional, cell-based
MDA-MB-435 = test: Antiproliferative activity against human MDA-MB-435 cells incubated for 48 hrs by [3H]-thymidine incorporation assay; type: functional, cell-based
BGC-823 = test: Cytotoxicity against human BGC-823 cells by MTT assay; type: functional, cell-based
HCT-116 [15] = test: Cytotoxicity against human HCT-116 cells by MTT assay; type: functional, cell-based
HepG2 [16] = test: Cytotoxicity against human HepG2 cells by MTT assay; type: functional, cell-based
HCT-116 [17] = test: Antiproliferative activity against human HCT-116 cells incubated for 72 hrs by WST-1 assay; type: functional, cell-based; conditions: HCT-116, 72 h

Compound: C/C1=C\CC[C@@]2(C)O[C@H]2[C@H]2OC(=O)C(CNc3ccn(C4OC(CO)[C@H](O)[C@@H]4O)c(=O)n3)[C@@H]2CC1 (stereo partly drawn)
pIC50 (HepG2 [1]): 6.62
pIC50 (MCF7 [2]): 5.28

pIC50 (A549): 6.24
pIC50 (A-431): 6.68
Compound: CC(C)[C@H]1OC(=O)C=C2[C@@]13O[C@@H]3[C@H]1OC(=O)[C@@]3(C)C[C@@H](O)C[C@@]2(C)[C@@H]13
pIC50 (MDA-MB-231 [3]): < 4.40
pIC50 (AGS): 5.85
pIC50 (HeLa): 6.22
pIC50 (HepG2 [4]): 5.51
pIC50 (PANC-1 [5]): < 4.40
pIC50 [6]: 6.37

Compound: CC(=O)O[C@@]1(C)COC2(C1)OC(=O)[C@H]([C@@H]1CC[C@]34C[C@]13C=C[C@@H]1[C@@]3(C)CC=C5C[C@@H](Cc6ccccc6)OC[C@]5(C)[C@@H]3[C@@H](O)C(=O)[C@]14C)[C@H]2O (stereo partly drawn)
pIC50 (HCT-116 [7]): 8.00
pIC50 (WM 266-4): 7.11

pIC50 [8]: 8.24
Compound: Cc1ccccc1Cn1cc(CO[C@H]2C(=O)O[C@H]3O[C@]45C(=O)O[C@@H]6C[C@@H](C(C)(C)C)[C@@]32[C@@]64[C@@H](O)[C@@H]2OC(=O)[C@@H](C)[C@@]25O)nn1

Compound: CC1=CC(=O)[C@@H](O)[C@]2(C)[C@H]3[C@@H](O)[C@H](O)[C@@]4(C)OC[C@@]35[C@@H](C[C@@H]12)OC(=O)[C@H](O)[C@]54O
pIC50 (PANC-1 [9]): 5.89
pIC50 (SW1990): 5.68
pIC50 (MCF7 [10]): 4.72
pIC50 (MDA-MB-231 [11]): 4.62

Compound: CC1(C)O[C@H]2CC(=O)OC[C@]23[C@H]2CC[C@@]4(C)[C@H](C5=CC(=O)OC5O)OC(=O)[C@H]5O[C@]54[C@]2(C)C(=O)C[C@@H]13 (stereo partly drawn)
pIC50 [12]: 4.66

Compound: C[C@@H]1C(=O)O[C@H]2[C@H](O)[C@]34[C@@H]5OC(=O)[C@]3(O[C@@H]3OC(=O)[C@H](O)[C@@]34[C@H](C(C)(C)C)[C@H]5O)[C@@]12O
pIC50 [8]: 5.12
pIC50 [13]: 4.77

Compound: C[C@H](CO)[C@H]1OC(=O)C=C2[C@@]3(C)[C@H](O)CC[C@]4(C)C(=O)O[C@H]([C@H]5O[C@@]251)[C@H]34
pIC50 (P388): 5.68

pIC50 (MCF7 [14]): 4.26
pIC50 (MDA-MB-435): 3.92
Compound: CC1(C)O[C@H]2CC(=O)OC[C@]23[C@H]2CC[C@@](C)([C@@H](O[C@H]4O[C@H](CO)[C@@H](O)[C@H](O)[C@H]4O)c4ccoc4)[C@@]4(O[C@@H]4C(=O)O)[C@]2(C)C(=O)C[C@@H]13
pIC50 [12]: 4.70

Compound: C[C@]1(O)COC2(C[C@@H]([C@@H]3CC[C@]45C[C@]34C=C[C@@H]3[C@@]4(C)CC=C6C[C@@H](Cc7ccccc7)OC[C@]6(C)[C@@H]4C[C@@H](O)[C@]35C)C(=O)O2)C1 (stereo partly drawn)
pIC50 (HCT-116 [7]): 6.35
pIC50 (WM 266-4): 5.89

Compound: CC1(C)O[C@H]2CC(=O)OC[C@]23[C@H]2CC[C@@]4(C)[C@H](C5=CC(O)OC5=O)OC(=O)[C@H]5O[C@]54[C@]2(C)C(=O)C[C@@H]13 (stereo partly drawn)
pIC50 [12]: 4.74

pIC50 (A549): 5.85
pIC50 (A-431): 5.77
Compound: C[C@H](CO)[C@H]1OC(=O)C=C2[C@@]13O[C@@H]3[C@H]1OC(=O)[C@@]3(C)C[C@@H](O)C[C@@]2(C)[C@@H]13
pIC50 [6]: 5.85

Compound: C/C1=C\CC[C@@]2(C)O[C@H]2[C@H]2OC(=O)C(CNC(Cc3ccc(N(CCCl)CCCl)cc3)C(=O)O)[C@@H]2CC1 (stereo partly drawn)
pIC50 (HepG2 [1]): 6.59
pIC50 (MCF7 [2]): 5.74

Compound: CC(C)(O)[C@]12O[C@H]1[C@@H]1O[C@]13[C@]1(O[C@H]1C[C@H]1C4=C(CC[C@@]13C)C(=O)OC4)[C@@H]2O
pIC50 (BGC-823): 6.70
pIC50 (HCT-116 [15]): 6.41
pIC50 (HepG2 [16]): 6.11

pIC50 (HCT-116 [17]): 7.00
Compound: COC(=O)[C@@]12OC[C@]34[C@H]([C@@H](O)[C@@H]1O)[C@@]1(C)CC(=O)C(O)=C(C)[C@@H]1C[C@H]3OC(=O)[C@H](OC(C)=O)[C@@H]24 [BRUCEINE B]

Compound: COC(=O)[C@@]12OC[C@]34[C@H]([C@@H](O)[C@@H]1O)[C@@]1(C)C=C(O[C@@H]5O[C@H](CO)[C@@H](O)[C@H](O)[C@H]5O)C(=O)[C@@H](C)[C@@H]1C[C@H]3OC(=O)[C@H](OC(=O)C=C(C)C)[C@@H]24 [BRUCEOSIDE A]
pIC50 (MCF7 [10]): < 4.30
pIC50 (MDA-MB-231 [11]): < 4.30

Compound: C[C@@H]1C(=O)O[C@H]2C[C@@]34[C@H]5C[C@@H](C(C)(C)C)[C@]36[C@@H](OC(=O)[C@@H]6O)O[C@@]4(C(=O)O5)[C@]21O [GINKGOLIDE A]
pIC50 [8]: 6.24
pIC50 [13]: 6.03

pIC50 (MCF7 [14]): 5.37
pIC50 (MDA-MB-435): 4.59
Compound: CC1(C)O[C@H]2CC(=O)OC[C@]23[C@H]2CC[C@@]4(C)[C@H](c5ccoc5)OC(=O)[C@H]5O[C@]54[C@]2(C)C(=O)C[C@@H]13 [LIMONIN]
pIC50 [12]: 4.38
